Experimental data reported in patent US20100240760A1 (priority 2005, published 2010).

Key:
[1] = test system: patients with mild-to-moderate essential hypertension; assay: Clinical trial A2201 (Example I): aliskiren vs placebo and irbesartan, 8 weeks; type: in vivo, human; conditions: for MSDBP responders / MSSBP responders: ITT population at Endpoint, aliskiren 150-600 mg groups, irbesartan 150 mg; for MSDBP responders: responder: MSDBP <90 mm Hg or ≧10 mm Hg reduction from baseline; for MSSBP responders: responder: MSSBP <140 mm Hg or ≧20 mm Hg reduction from baseline; for mean increase in active renin: ITT population
Source text: The clinical trial. A multicenter, randomized, double-blind, parallel group clinical trial was designed to explore the efficacy and safety of aliskiren compared to placebo in a population of mild-to-moderate hypertensive patients. The treatment was for eight weeks, i.e., the clinical trial endpoint was at eight weeks for this particular trial. […] The majority of patients were Caucasian and younger than 65 years of age, with a mean age in the mid 50s. The overall distribution of males and females was even. The primary efficacy variable analysed was MSDBP change (reduction in MSDBP from baseline). The secondary efficacy variables analysed were MSSBP change (reduction in MSSBP from baseline), responder ratio, plasma renin activity (PRA) reduction and active plasma renin (AREN) increase from baseline.

[2] = test system: patients with mild-to-moderate essential hypertension; assay: Pharmacogenetic analysis of A2201 (Example I): response by ACE and AGTR2 genotype; type: in vivo, human; conditions: aliskiren treated groups pooled
[3] = humans; cited from earlier work
hypertensive patients = assay: Clinical trial A2203 (Example II): aliskiren, valsartan and combinations, 6 weeks; type: in vivo, human
[4] = test system: patients with mild-to-moderate essential hypertension; assay: Re-analysis of A2201 by genotype (Example II model, LSMEAN, race as covariate); type: in vivo, human; conditions: all aliskiren treated groups in A2201
Source text: Samples. Patients participating in the clinical trial A2201 (see, EXAMPLE I) and clinical trial A2203 were asked to provide a separate consent for participation in pharmacogenetic analysis. Blood samples from all consenting patients were collected at the individual trial sites and then shipped to Covance (Indianapolis, Ind.). The genomic DNA of each patient was extracted from the blood by Covance using the […]™ DNA Isolation Kit (D-50K) (Gentra, Minneapolis, Minn.) and shipped to NIBR for genotyping. Ultimately, 511 patients from the clinical trial in EXAMPLE I (A2201) were genotyped, with roughly equal ratios of each treatment arm.
The primary efficacy variable was MSDBP change (reduction in MSDBP from baseline at end point). The secondary efficacy variables are MSSBP change (reduction in MSSBP from baseline at end point), responder ratio, plasma renin activity (PRA) reduction and active plasma renin (AREN) increase from baseline.
Genotyping. SNP assays were designed using information from the public dbSNP database and the proprietary Celera/ABI database. The resulting probe sets for the genotyping assay were generated for ABI's Assays-by-Design® platform. Livak K J et al., Nat. Genet. 9: 341-2 (1995). Genotyping was performed on 10 ng of genomic DNA according to the manufacturer's instructions.
Statistical analysis. Genotype-phenotype association studies and related analyses were performed in SAS (Cary, N.C.) using Analyst.
Association tests used categorical genotypes as the independent variable, with no assumption about dominance, and the various efficacy variables as dependent variables. Tests of continuous dependent variables used an ANCOVA analysis, and logistic regression was used for categorical dependent variables. Note that none of the results have been adjusted for multiple hypothesis testing. […] Covariates in the genotype-phenotype association analysis were: (1) dose level of treatment; (2) trial region coded as STU1A in A2201 (see EXAMPLE I) or REGION in A2203; (3) baseline measurement of MSDBP and MSSBP; and (4) race. Analysis was performed in all the samples from the three aliskiren treated arms first.

[5] = test system: sodium-depleted marmosets; conditions: p.o. or i.v.; cited from earlier work
[6] = test system: patients with mild-to-moderate essential hypertension; assay: Clinical trial A2201 (Example I): aliskiren vs placebo and irbesartan, 8 weeks; type: in vivo, human; conditions: 75, 150, or 300 mg once daily; mild-to-moderate hypertensive patients
[7] = SNP_4769 genotype CT (n 14), listed as Aliskiren
[8] = SNP_4769 genotype TT (n 278), listed as Aliskiren

Question: Which results are given for `CCCCC1=NC2(CCCC2)C(=O)N1Cc1ccc(-c2ccccc2-c2nnn[nH]2)cc1` [irbesartan]?
Answer: MSDBP responders [1]: 56%; MSSBP responders [1]: 59%; mean increase in active renin ([1]; 150 mg): 11.2 mu/mL

Question: What does the source list for `COCCCOc1cc(C[C@@H](C[C@H](N)[C@@H](O)C[C@H](C(=O)NCC(C)(C)C(N)=O)C(C)C)C(C)C)ccc1OC` [aliskiren, Aliskiren]?
Answer: MSDBP reduction ([2]; SNP_1445 genotype AA (n 106)): −11.2 mmHg; MSSBP reduction ([2]; SNP_1445 genotype AA (n 106)): −13.9 mm Hg; MSDBP reduction ([2]; SNP_1445 genotype AG (n 69)): −13.2 mmHg; MSSBP reduction ([2]; SNP_1445 genotype AG (n 69)): −15.7 mm Hg; MSDBP reduction ([2]; SNP_1445 genotype GG (n 118)): −9.3 mmHg; MSSBP reduction ([2]; SNP_1445 genotype GG (n 118)): −11.8 mm Hg; MSDBP reduction ([2]; SNP_4769 genotype CT (n 14)): 4.7 mmHg; MSSBP reduction ([2]; SNP_4769 genotype CT (n 14)): 6.2 mm Hg; MSDBP reduction [2, 7]: −4.7 mmHg; MSSBP reduction [2, 7]: −6.2 mm Hg; MSDBP reduction ([2]; SNP_4769 genotype TT (n 278)): 11.1 mmHg; MSSBP reduction ([2]; SNP_4769 genotype TT (n 278)): 13.7 mm Hg; MSDBP reduction [2, 8]: −11.1 mmHg; MSSBP reduction [2, 8]: −13.7 mm Hg; MSDBP reduction ([2]; SNP_4795 genotype AA (n 115)): −9.0 mmHg; MSSBP reduction ([2]; SNP_4795 genotype AA (n 115)): −11.5 mm Hg; MSDBP reduction ([2]; SNP_4795 genotype GA (n 72)): −13.3 mmHg; MSSBP reduction ([2]; SNP_4795 genotype GA (n 72)): −16.3 mm Hg; MSDBP reduction ([2]; SNP_4795 genotype GG (n 106)): −11.1 mmHg; MSSBP reduction ([2]; SNP_4795 genotype GG (n 106)): −13.6 mm Hg; Cmax and AUC dependence on dose [3]: increase with dose, but in a non-linear fashion; bioavailability [3]: approximately 2.7%; half-life [3]: approximately 25 hours; time to peak plasma levels after administration [3]: 3 to 5 h; change from baseline in MSDBP, aliskiren monotherapy vs. placebo (hypertensive patients; aliskiren 300 mg group, 6 weeks): statistically significant; dose-response and magnitude of placebo-subtracted effects (hypertensive patients; preliminary clinical study results summary, placebo response 8.6 mmHg): lower than expected; LSMEAN of MSDBP reduction ([4]; SNP_1445 genotype AA (n 106)): −11.0 mmHg; LSMEAN of MSSBP reduction ([4]; SNP_1445 genotype AA (n 106)): −11.2 mmHg; Responder rate ([4]; SNP_1445 genotype AA (n 106)): 75%; LSMEAN of MSDBP reduction ([4]; SNP_1445 genotype AG (n 69)): −13.3 mmHg; LSMEAN of MSSBP reduction ([4]; SNP_1445 genotype AG (n 69)): −13.8 mmHg; Responder rate ([4]; SNP_1445 genotype AG (n 69)): 71%; LSMEAN of MSDBP reduction ([4]; SNP_1445 genotype GG (n 118)): −9.4 mmHg; LSMEAN of MSSBP reduction ([4]; SNP_1445 genotype GG (n 118)): −9.8 mmHg; Responder rate ([4]; SNP_1445 genotype GG (n 118)): 58%; Responder rate ([4]; SNP_4769 genotype CT (n 14)): 14%; LSMEAN of MSDBP reduction ([4]; SNP_4795 genotype AA (n 115)): −9.2 mmHg; LSMEAN of MSSBP reduction ([4]; SNP_4795 genotype AA (n 115)): −9.5 mmHg; Responder rate ([4]; SNP_4795 genotype AA (n 115)): 57%; LSMEAN of MSDBP reduction ([4]; SNP_4795 genotype GA (n 72)): −13.4 mmHg; LSMEAN of MSSBP reduction ([4]; SNP_4795 genotype GA (n 72)): −14.2 mmHg; Responder rate ([4]; SNP_4795 genotype GA (n 72)): 74%; LSMEAN of MSDBP reduction ([4]; SNP_4795 genotype GG (n 106)): −10.8 mmHg; LSMEAN of MSSBP reduction ([4]; SNP_4795 genotype GG (n 106)): −10.8 mmHg; Responder rate ([4]; SNP_4795 genotype GG (n 106)): 75%; MSDBP responders [1]: 59-67%; MSSBP responders [1]: 57-68%; mean increase in active renin ([1]; 150 mg): 20.8 mu/mL; mean increase in active renin ([1]; 300 mg): 29.9 mu/mL; mean increase in active renin ([1]; 600 mg): 93.6 mu/mL; MSDBP reduction, comparison across treatment groups ([1]; aliskiren 300 and 600 mg): greatest reductions; MSSBP reduction, comparison across treatment groups ([1]; aliskiren 300 and 600 mg): greatest reductions; MSSBP reduction, comparison with placebo and irbesartan ([1]; aliskiren 300 and 600 mg, at Endpoint): statistically superior to placebo and irbesartan; inhibition of plasma renin activity (PRA) [5]: complete inhibition; mean arterial pressure (MAP) [5]: sustained reductions; plasma concentrations of active and total renin [5]: significant increases; daytime ambulatory systolic blood pressure (DASBP) [6]: statistically significant reduction
